Values belong to the molecule of their own block, whether it stands above or below them.
Tests used:
[1] = In vivo PK after oral administration in SD rats; conditions: for Half-life (t1/2), comparison in words: SD rats, PO, summary of Table 2; for t1/2: male SD rats, PO 2 mg/kg, plasma, mean ± SD, n = 3
Method: Test samples: the compound of represented by formula (1), and crystal forms I and II of the compound of formula (1) were prepared according to Examples 1-3;
The tris (i.e. tris(hydroxymethyl)aminomethane) salt crystal form of the compound 8-chloro-3-pentyl-3,7-dihydro-1H-purine-2,6-dione was prepared with reference to WO2010/068581A1.
Oral administration (PO) of four samples:
The concentrations of the test substances were output using Analyst 1.6.2 from AB Sciex. Parameters such as mean, standard deviation, and variation coefficient were calculated using Microsoft Excel (those directly output by Analyst 1.6.2 were not recalculated). PK parameters were calculated using Pharsight Phoenix 6.2 software (NCA model).

[2] = Thermodynamic stability of crystal forms; format: physicochemical
Method: (§1) The dehydration risk of the monohydrate crystal form was also evaluated by using VT-XRPD (variable temperature X-ray powder diffraction) in the present invention. […] The stability of crystal forms I and IV in the solid-state was also studied in the present invention.

[3] = Hygroscopicity test according to Chinese Pharmacopoeia; format: physicochemical; conditions: for Weight gain due to hygroscopicity: 25±1° C., 80%+2% relative humidity; for Hygroscopicity, summary in words: summary of hygroscopicity test
Method: Test Example 3: Hygroscopicity Test (According to Chinese Pharmacopoeia, Guidelines for Drug
Hygroscopicity Testing, at 25±1° C., and 80%+2% Relative Humidity)
An appropriate amount of the sample from the examples was taken for the hygroscopicity test.

[4] = Dehydration risk of monohydrate crystal form by VT-XRPD; format: physicochemical
Method: as §1

[5] = Kinetic stability in the solid state (long-term storage); format: physicochemical; conditions: stored at 10° C.-30° C. in double-sealed aluminum packaging and plastic self-sealing bags for more than 6 years
Method: as §1

[6] = Stability of crystal form I in the formulation; format: physicochemical
Method: as §1

[7] = Photostability test (influencing factor stability test); format: physicochemical; conditions: illuminance 5000 Lx ± 500 Lx
Method: (§2) Test samples: crystal form I and crystal form II of the compound of formula (1) were prepared according to the above examples.
(§3) Test conditions for investigating the influencing factors:
(§4) Photostablity test: Crystal form I and crystal form II of the compound of formula (1) were laid on a dry and clean watch glass, and kept at an illuminance of 5000 Lx±500 Lx in a light box for 10 days. Samples were taken respectively on Day 5 and Day 10. The purity and the related substance content of the compound of formula (1) were determined and compared with those of the sample taken on Day 0.

[8] = Solid-state stability under accelerated conditions, open container; format: physicochemical; conditions: one month
Method: as §1

[9] = High humidity test (influencing factor stability test); format: physicochemical; conditions: for Change of purities/related substance contents: under high humidity and light exposure (summary of Table 1)
Method: as §2, §3
as §4, with “High humidity” for “Photostablity”, “40° C.±2° C., and 75% RH±5%” for “an illuminance of 5000 Lx±500 Lx in a light box”

[10] = Transformation of crystal form on standing under ambient conditions; format: physicochemical; conditions: 25-30° C., 70-85% RH, about 10 hours
uric acid = conditions: cited from earlier work
[11] = cited from earlier work
[12] = compared with the free acid; cited from earlier work
[13] = 40° C. ± 2° C./75% ± 5% RH, Day 5
[14] = 40° C. ± 2° C./75% ± 5% RH, Day 10
[15] = Day 0, sample before exposure (baseline for both tests)

Crystal form transformation after storage ([8]; 25° C./92.5% RH): transformed into crystal form I
Crystal form transformation after storage ([8]; 40° C./75% RH): transformed into crystal form I
SMILES: CCCCCn1c(=O)[nH]c(=O)c2[nH]c(Cl)nc21 [Crystal form IV, 8-chloro-3-pentyl-3,7-dihydro-1H-purine-2,6-dione]

Crystal form transformation under ambient conditions [10]: transform into crystal form IV
SMILES: CCCCCn1c(=O)[nH]c(=O)c2[nH]c(Cl)nc21 [Crystal form V, 8-chloro-3-pentyl-3,7-dihydro-1H-purine-2,6-dione]

t1/2 ([1]; monohydrate, 2 mg/kg): 2.32 ± 0.09 h
SMILES: CCCCCn1c(=O)[nH]c(=O)c2[nH]c(Cl)nc21 [Solid product of Example 1, 8-chloro-3-pentyl-3,7-dihydro-1H-purine-2,6-dione monohydrate, reference compound]

t1/2 [1]: 2.38 ± 0.17 h
SMILES: CCCCCn1c(=O)[nH]c(=O)c2[nH]c(Cl)nc21.NC(CO)(CO)CO [tris salt crystal form, 8-chloro-3-pentyl-3,7-dihydro-1H-purine-2,6-dione tris(hydroxymethyl)aminomethane salt]
Solubility compared with the free acid [11]: higher solubility
Cmax [12]: increased Cmax
Tmax [12]: decreased Tmax

Further lines, the molecule ahead of its results:

SMILES: CCCCCn1c(=O)[nH]c(=O)c2[nH]c(Cl)nc21 [Crystal form I, 8-chloro-3-pentyl-3,7-dihydro-1H-purine-2,6-dione]
Half-life (t1/2), comparison in words [1]: longer half-lifes
t1/2 ([1]; 2 mg/kg): 5.28 ± 1.10 h
Thermodynamic stability for pharmaceutical applications [2]: advantageous
Weight gain due to hygroscopicity [3]: <0.2%
Hygroscopicity, summary in words [3]: extremely low hygroscopicity
Dehydration risk [4]: very low
Crystal form after long-term storage [5]: remained unchanged
Content of crystal form III in the formulation ([6]; formulation stored at 25° C./60% RH for 9 months): below LOD
Content of crystal form III in the formulation ([6]; formulation stored at 40° C./75% RH for 6 months): below LOD
Purity ([7]; Day 5): 99.6%
Related substance ([7]; Day 5): 0.44%
Purity ([7]; Day 10): 99.5%
Related substance ([7]; Day 10): 0.46%
Crystal form transformation after storage ([8]; 25° C./92.5% RH): did not transform
Crystal form transformation after storage ([8]; 40° C./75% RH): did not transform
Purity [9, 13]: 99.5%
Related substance [9, 13]: 0.46%
Purity [9, 14]: 99.6%
Related substance [9, 14]: 0.42%
Purity [9, 15]: 99.6%
Related substance [9, 15]: 0.45%
Change of purities/related substance contents [9]: changed very little

SMILES: CCCCCn1c(=O)[nH]c(=O)c2[nH]c(Cl)nc21 [Crystal form II, 8-chloro-3-pentyl-3,7-dihydro-1H-purine-2,6-dione]
Half-life (t1/2), comparison in words [1]: longer half-lifes
t1/2 ([1]; 2 mg/kg): 4.26 ± 0.61 h
Thermodynamic stability for pharmaceutical applications [2]: advantageous
Weight gain due to hygroscopicity [3]: <0.2%
Hygroscopicity, summary in words [3]: extremely low hygroscopicity
Purity ([7]; Day 5): 99.7%
Related substance ([7]; Day 5): 0.31%
Purity ([7]; Day 10): 99.7%
Related substance ([7]; Day 10): 0.32%
Purity [9, 13]: 99.7%
Related substance [9, 13]: 0.31%
Purity [9, 14]: 99.7%
Related substance [9, 14]: 0.32%
Purity [9, 15]: 99.7%
Related substance [9, 15]: 0.32%
Change of purities/related substance contents [9]: changed very little

SMILES: CCCCCn1c(=O)[nH]c(=O)c2[nH]c(Cl)nc21 [Crystal form III, 8-chloro-3-pentyl-3,7-dihydro-1H-purine-2,6-dione]
Thermodynamic stability for pharmaceutical applications [2]: suboptimal

SMILES: CCCCCn1c(=O)[nH]c(=O)c2[nH]c(Cl)nc21 [Formula (1), 8-chloro-3-pentyl-3,7-dihydro-1H-purine-2,6-dione]
Uric acid-lowering effect (uric acid): good uric acid-lowering effect

Source: patent publication US20260035370A1, “CRYSTAL FORM OF 8-CHLORO-3-PENTYL-3,7-DIHYDRO-1H-PURIN-2,6-DIONE COMPOUND AND PREPARATION METHOD THEREFOR” (Shanton Pharma Pte. Ltd., priority 2023, published 2026)
